Test results: ChEMBL document CHEMBL4422618, “Translational impact of novel widely pharmacological characterized mofezolac-derived COX-1 inhibitors combined with bortezomib on human multiple myeloma cell lines viability” (Eur J Med Chem, 2019)
Calls of active or inactive are those of the source. No cut-off for these calls is given here.

Tests used:
[1] = biological target: T1, Prostaglandin G/H synthase 1 (Ovis aries) (UniProt P05979); assay: Inhibition of ovine COX1 at 50 uM using arachidonic acid as substrate by colorimetric assay relative to control
T1 sequence (whole entry): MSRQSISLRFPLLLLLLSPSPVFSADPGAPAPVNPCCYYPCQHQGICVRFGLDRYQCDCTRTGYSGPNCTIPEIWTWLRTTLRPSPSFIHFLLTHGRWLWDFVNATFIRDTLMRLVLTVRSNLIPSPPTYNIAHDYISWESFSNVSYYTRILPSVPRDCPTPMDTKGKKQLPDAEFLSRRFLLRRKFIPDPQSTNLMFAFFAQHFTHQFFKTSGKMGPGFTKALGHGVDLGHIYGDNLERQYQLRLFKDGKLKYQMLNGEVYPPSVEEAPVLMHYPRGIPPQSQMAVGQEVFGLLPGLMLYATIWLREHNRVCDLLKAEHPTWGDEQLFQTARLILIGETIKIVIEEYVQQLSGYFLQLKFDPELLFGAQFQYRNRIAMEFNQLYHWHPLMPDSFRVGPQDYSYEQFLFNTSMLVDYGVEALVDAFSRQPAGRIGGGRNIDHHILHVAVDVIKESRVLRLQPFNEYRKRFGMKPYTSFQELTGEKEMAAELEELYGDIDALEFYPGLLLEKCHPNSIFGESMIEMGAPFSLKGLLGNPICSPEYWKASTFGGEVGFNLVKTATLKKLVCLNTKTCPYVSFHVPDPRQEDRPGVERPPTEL

[2] = biological target: T2, Prostaglandin G/H synthase 1 (Ovis aries, UniProt P05979); assay: Inhibition of ovine COX1 using arachidonic acid as substrate by colorimetric assay
T2 sequence (P05979 whole entry): T1 sequence (whole entry)

[3] = biological target: T3, Prostaglandin G/H synthase 2 (Homo sapiens, UniProt P35354); assay: Inhibition of human COX2 using arachidonic acid as substrate by colorimetric assay
T3 sequence (P35354 whole entry): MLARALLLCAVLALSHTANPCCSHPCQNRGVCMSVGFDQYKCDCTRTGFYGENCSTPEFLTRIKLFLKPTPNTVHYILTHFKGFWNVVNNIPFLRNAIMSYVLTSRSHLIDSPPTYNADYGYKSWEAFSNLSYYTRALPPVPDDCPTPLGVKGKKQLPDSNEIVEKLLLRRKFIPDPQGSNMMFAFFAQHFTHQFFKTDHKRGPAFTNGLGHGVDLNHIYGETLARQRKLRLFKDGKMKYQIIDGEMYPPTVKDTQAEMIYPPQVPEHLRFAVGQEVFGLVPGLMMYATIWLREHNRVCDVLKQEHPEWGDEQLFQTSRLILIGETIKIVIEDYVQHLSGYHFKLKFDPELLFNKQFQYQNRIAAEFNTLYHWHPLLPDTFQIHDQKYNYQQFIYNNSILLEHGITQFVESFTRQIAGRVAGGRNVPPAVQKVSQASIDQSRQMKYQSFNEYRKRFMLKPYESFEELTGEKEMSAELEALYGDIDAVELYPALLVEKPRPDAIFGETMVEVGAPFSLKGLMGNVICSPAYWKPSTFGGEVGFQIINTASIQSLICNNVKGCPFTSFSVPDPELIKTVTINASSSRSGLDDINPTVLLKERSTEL

[4] = biological target: T4, Prostaglandin G/H synthase 2 (Homo sapiens) (UniProt P35354); assay: Inhibition of human COX2 at 50 uM using arachidonic acid as substrate by colorimetric assay relative to control
T4 sequence (whole entry): T3 sequence (P35354 whole entry)

[5] = Selectivity index, ratio of IC50 for human COX2 to IC50 for ovine COX1
[6] = biological target: T1, Prostaglandin G/H synthase 1 (Ovis aries); assay: Inhibition of ovine COX1 at 10 uM using arachidonic acid as substrate by colorimetric assay relative to control
[7] = Genotoxicity in Escherichia coli PQ35 at 500 uM after overnight incubation by SOS chromotest; assay type: toxicity
[8] = Genotoxicity in Escherichia coli PQ37 at 500 uM after overnight incubation by SOS chromotest; assay type: toxicity
NCI-H929 [9] = assay: Cell cycle arrest in human NCI-H929 cells assessed as accumulation at S phase at 2 nM after 48 hrs by propidium iodide/RNase staining based flow cytometric method relative to control; assay type: functional
NCI-H929 [10] = assay: Induction of apoptosis in human NCI-H929 cells assessed as late apoptotic cells at 2 nM after 48 hrs by Annexin-V/propidium iodide staining based flow cytometric method (reference value: 0.23%); assay type: functional
NCI-H929 [11] = assay: Induction of apoptosis in human NCI-H929 cells assessed as early apoptotic cells at 2 nM after 48 hrs by Annexin-V/propidium iodide staining based flow cytometric method (reference value: 17.1%); assay type: functional
RPMI-8226 [12] = assay: Induction of apoptosis in human RPMI8226 cells assessed as necrotic cells at 3 nM after 48 hrs by Annexin-V/propidium iodide staining based flow cytometric method (reference value: 0.090%); assay type: functional
RPMI-8226 [13] = assay: Cell cycle arrest in human RPMI8226 cells assessed as accumulation at G0/G1 phase at 3 nM after 48 hrs by propidium iodide/RNase staining based flow cytometric method; assay type: functional
RPMI-8226 [14] = assay: Cytotoxicity against human RPMI8226 cells assessed as reduction in cell viability at 2 nM after 48 hrs by CCK8 assay relative to control; assay type: functional, cell-based
NCI-H929 [15] = assay: Induction of apoptosis in human NCI-H929 cells assessed as necrotic cells at 2 nM after 48 hrs by Annexin-V/propidium iodide staining based flow cytometric method (reference value: 0.0034%); assay type: functional
NCI-H929 [16] = assay: Cell cycle arrest in human NCI-H929 cells assessed as accumulation at G0/G1 phase at 2 nM after 48 hrs by propidium iodide/RNase staining based flow cytometric method relative to control; assay type: functional
RPMI-8226 [17] = assay: Induction of apoptosis in human RPMI8226 cells assessed as viable cells at 3 nM after 48 hrs by Annexin-V/propidium iodide staining based flow cytometric method (reference value: 98.7%); assay type: functional; conditions: RPMI-8226, 48 h, read-out: Activity
RPMI-8226 [18] = assay: Cell cycle arrest in human RPMI8226 cells assessed as accumulation at S phase at 3 nM after 48 hrs by propidium iodide/RNase staining based flow cytometric method; assay type: functional
RPMI-8226 [19] = assay: Induction of apoptosis in human RPMI8226 cells assessed as early apoptotic cells at 3 nM after 48 hrs by Annexin-V/propidium iodide staining based flow cytometric method (reference value: 1.05%); assay type: functional
RPMI-8226 [20] = assay: Cytotoxicity against human RPMI8226 cells assessed as reduction in cell viability at 2 nM after 48 hrs by CCK8 assay; assay type: functional, cell-based
RPMI-8226 [21] = assay: Induction of apoptosis in human RPMI8226 cells assessed as late apoptotic cells at 3 nM after 48 hrs by Annexin-V/propidium iodide staining based flow cytometric method (reference value: 0.21%); assay type: functional
RPMI-8226 [22] = assay: Cytotoxicity against human RPMI8226 cells assessed as reduction in cell viability at 3 nM after 48 hrs by CCK8 assay relative to control; assay type: functional
NCI-H929 [23] = assay: Induction of apoptosis in human NCI-H929 cells assessed as viable cells at 2 nM after 48 hrs by Annexin-V/propidium iodide staining based flow cytometric method (reference value: 82.6%); assay type: functional; conditions: NCI-H929, 48 h, read-out: Activity
Plasma [24] = assay: Anticoagulant activity in human platelet poor plasma assessed as activated partial thromboplastin time at 100 uM incubated for 15 mins at room temperature and subsequent incubation for 2 mins at 37 degreeC followed by cephalin addition and measured after 2 mins for every secs in presence of CaCl2; assay type: functional
Plasma [25] = assay: Anticoagulant activity in human platelet poor plasma assessed as prothrombin time at 100 uM incubated for 15 mins at room temperature and subsequent incubation for 2 mins at 37 degreeC followed by PBS addition and measured after 3 mins for every secs in presence of calcium thromboplastin; assay type: functional

SMILES	inhibition [1] [%]	IC50 [2] [µM]	IC50 [3] [µM]	further results
Nc1onc(-c2ccc([N+](=O)[O-])cc2)c1-c1ccc(F)cc1	71	12	> 50	
CS(=O)(=O)c1ccc(-c2noc(N)c2-c2ccc(F)cc2)cc1		> 50	> 50	
Cc1onc(-c2ccc([N+](=O)[O-])cc2)c1-c1ccc(F)cc1		> 50	> 50	
Cc1onc(-c2ccc(S(C)(=O)=O)cc2)c1-c1ccc(F)cc1	24	> 50	0.07	inhibition [4]: 52%
COc1ccc(-c2c(-c3ccc(NC(C)=O)cc3)noc2CC(=O)O)cc1	79	12	> 50	
O=[N+]([O-])c1cc[n+]([O-])c2ccccc12 [4-NITROQUINOLINE-1-OXIDE]				Activity [7]: Toxic; Activity [8]: Toxic
CC(C)C[C@H](NC(=O)[C@H](Cc1ccccc1)NC(=O)c1cnccn1)B(O)O [BORTEZOMIB]				Activity (NCI-H929 [9]): 10%; Activity (NCI-H929 [10]): 0.14%; Activity (NCI-H929 [11]): 48.7%; Activity (RPMI-8226 [12]): 0.0918%; Activity (RPMI-8226 [13]): inactive; Activity (RPMI-8226 [14]): Active; Activity (NCI-H929 [15]): 0.033%; Activity (NCI-H929 [16]): 10%; viability at 0.003 µM (RPMI-8226 [17]): 91.1%; Activity (RPMI-8226 [18]): inactive; Activity (RPMI-8226 [19]): 8.81%; Activity (RPMI-8226 [20]): Active; Activity (RPMI-8226 [21]): 0.11%; Activity (RPMI-8226 [22]): 53%; viability at 0.002 µM (NCI-H929 [23]): 51.1%
O=C(NC[C@H]1CN(c2ccc(N3CCOCC3=O)cc2)C(=O)O1)c1ccc(Cl)s1 [RIVAROXABAN]				APTT (Plasma [24]): 300 s; PT (Plasma [25]): 300 s

Further lines, with some results ahead:

inhibition [1] [%]	IC50 [2] [µM]	IC50 [3] [µM]	SMILES	further results
89	8.3	> 50	COc1ccc(-c2noc(N)c2-c2ccc(OC)cc2)cc1	
100	0.35	0.3	COc1ccc(-c2noc(CF)c2-c2ccc(OC)cc2)cc1	inhibition [4]: 85%
83	13	> 50	COc1ccc(-c2c(-c3ccc(F)cc3)noc2N)cc1	
		0.35	COc1ccc(-c2noc(C)c2-c2ccc(OC)cc2)cc1	Ratio IC50 [5]: 4.6
33	> 50	> 50	COc1ccc(-c2c(-c3ccc(N)cc3)noc2CC(=O)O)cc1	inhibition [4]: 42%
94	3	> 50	COc1ccc(-c2c(-c3ccc(F)cc3)noc2C)cc1	
93	0.1	0.18	COc1ccc(-c2noc(CBr)c2-c2ccc(OC)cc2)cc1	inhibition [4]: 63%
53	23	> 50	COc1ccc(-c2c(-c3ccc(N)cc3)noc2C)cc1	
		> 50	COc1ccc(-c2c(-c3ccc([N+](=O)[O-])cc3)noc2C)cc1	inhibition [6]: 36%
92	7.5	> 50	COc1ccc(-c2c(-c3ccc(F)cc3)noc2CC(=O)O)cc1	
100	0.12	0.19	COc1ccc(-c2noc(CCO)c2-c2ccc(OC)cc2)cc1	Ratio IC50 [5]: 1.6; inhibition [4]: 82%
